Measurements published in ChEMBL document CHEMBL2203188, “Preparation of N-(Hetero)cyclyl Benzamides as Inhibitors of the Activity of Complex III of the Mitochondrial Electron Transport Chain: Patent Highlight” (ACS Med Chem Lett, 2012).

Assay: Inhibition of electron transport protein complex 3 in glioma initiating cells assessed as increase in cell death at 50 uM after 48 hrs relative to control
Assay type: cell-based

With `O=CNc1cccc(C(=O)NC2CCCCCCCC2)c1O` the fold change (FC) was > 1.2.
